# Test system: IL-1β production in PMA-differentiated THP-1 cells
# Assay: IL-1β production in PMA-differentiated THP-1 cells stimulated with gramicidin (hTHP-1 assay, 2% fetal bovine serum; Procedures 1-3)
# Format: cell-based, human
# Conditions: Homo sapiens, THP-1, Table B3; hTHP-1 assay containing 2% fetal bovine serum, gramicidin stimulation, IL-1β readout; read-out: hTHP-1 IC50
# Description: The following protocol is suitable for testing the activity of the compounds disclosed herein.
# Procedure 1: IL-1β Production in PMA-Differentiated THP-1 Cells Stimulated with Gramicidin.
# THP-1 cells were purchased from the American Type Culture Collection and sub-cultured according to instructions from the supplier. Cells were cultured in complete RPMI 1640 (containing 10% heat inactivated FBS, penicillin (100 units/ml) and streptomycin (100 μg/ml)), and maintained in log phase prior to experimental setup. Prior to the experiment, compounds were dissolved in dimethyl sulfoxide (DMSO) to generate a 30 mM stock. The compound stock was first pre-diluted in DMSO to 3, 0.34, 0.042 and 0.0083 mM intermediate concentrations and subsequently spotted using Echo550 liquid handler into an empty 384-well assay plate to achieve desired final concentration (e.g. 100, 33, 11, 3.7, 1.2, 0.41, 0.14, 0.046, 0.015, 0.0051, 0.0017 μM). DMSO was backfilled in the plate to achieve a final DMSO assay concentration of 0.37%. The plate was then sealed and stored at room temperature until required.
# THP-1 cells were treated with PMA (Phorbol 12-myristate 13-acetate) (20 ng/ml) for 16-18 hours. On the day of the experiment the media was removed and adherent cells were detached with trypsin for 5 minutes. Cells were then harvested, washed with complete RPMI 1640, spun down, and resuspended in RPMI 1640 (containing 2% heat inactivated FBS, penicillin (100 units/ml) and streptomycin (100 μg/ml). The cells were plated in the 384-well assay plate containing the spotted compounds at a density of 50,000 cells/well (final assay volume 50 μl). Cells were incubated with compounds for 1 hour and then stimulated with gramicidin (5 μM) (Enzo) for 2 hours. Plates were then centrifuged at 340 g for 5 min. Cell free supernatant (40 μL) was collected using a 96-channel PlateMaster (Gilson) and the production of IL-1β was evaluated by HTRF (cisbio). The plates were incubated for 18 h at 4° C. and read using the preset HTRF program (donor emission at 620 nm, acceptor emission at 668 nm) of the SpectraMax i3x spectrophotometer (Molecular Devices, software SoftMax 6). A vehicle only control and a dose titration of CRID3 (100-0.0017 μM) were run concurrently with each experiment.
# Procedure 2: IL-1β Production in PMA-Differentiated THP-1 Cells Stimulated with Gramicidin.
# THP-1 cells were purchased from the American Type Culture Collection and sub-cultured according to instructions from the supplier. Prior to experiments, cells were cultured in complete RPMI 1640 (containing 10% heat inactivated FBS, penicillin (100 units/ml) and streptomycin (100 μg/ml)), and maintained in log phase prior to experimental setup. Prior to the experiment THP-1 were treated with PMA (Phorbol 12-myristate 13-acetate) (20 ng/ml) for 16-18 hours. Compounds were dissolved in dimethyl sulfoxide (DMSO) to generate a 30 mM stock. On the day of the experiment the media was removed and adherent cells were detached with trypsin for 5 minutes. Cells were then harvested, washed with complete RPMI 1640, spun down, resuspended in RPMI 1640 (containing 2% heat inactivated FBS, penicillin (100 units/ml) and streptomycin (100 μg/ml) . The cells were plated in a 384-well plate at a density of 50,000 cells/well (final assay volume 50 μl). Compounds were first dissolved in assay medium to obtain a 5× top concentration of 500 μM. 10 step dilutions (1:3) were then undertaken in assay medium containing 1.67% DMSO. 5× compound solutions were added to the culture medium to achieve desired final concentration (e.g. 100, 33, 11, 3.7, 1.2, 0.41, 0.14, 0.046, 0.015, 0.0051, 0.0017 μM). Final DMSO concentration was at 0.37%. Cells were incubated with compounds for 1 hour and then stimulated with gramicidin (5 μM) (Enzo) for 2 hours. Plates were then centrifuged at 340 g for 5 min. Cell free supernatant (40 μL) was collected using a 96-channel PlateMaster (Gilson) and the production of IL-1β was evaluated by HTRF (cisbio). […]
row,IC50 [nM],SMILES
1,40 to 200,"CNC(c1ccc(S(N)(=O)=NC(=O)Nc2c3c(cc4c2CCC4)CCC3)s1)C1CC1 (centres unmarked) [Example 723, 5-(cyclopropyl(methylamino)methyl)-N′-((1,2,3,5,6,7-hexahydro-s-indacen-4-yl)carbamoyl)thiophene-2-sulfonimidamide]"
2,1000 to 5000,"COC1CCc2csc(S(N)(=O)=NC(=O)Nc3c4c(cc5c3CCC5)CCC4)c2C1 (centres unmarked) [Example 775, N′-((1,2,3,5,6,7-hexahydro-s-indacen-4-yl)carbamoyl)-6-methoxy-4,5,6,7-tetrahydrobenzo[c]thiophene-1-sulfonimidamide]"

# Same assay, conditions: Homo sapiens, THP-1, hTHP-1 assay containing 2% fetal bovine serum, Table B2, class symbols; read-out: IC50
row,SMILES,IC50 [nM]
1,C[C@@](O)(CO)c1ncc(S(N)(=O)=NC(=O)Nc2c3c(cc4c2CC4)CCC3)s1 (some centres unmarked) [Compound 919c],8 to 40
2,"CC(C)(O)c1cc(S(N)(=O)=NC(=O)Nc2c3c(c(C#N)c4c2CCC4)CCC3)nn1-c1ccccc1 (centres unmarked) [Example 490, N′-((8-cyano-1,2,3,5,6,7-hexahydro-s-indacen-4-yl)carbamoyl)-5-(2-hydroxypropan-2-yl)-1-phenyl-1H-pyrazole-3-sulfonamide]",200 to 1000

# Results, then the compound that gave them:
row,IC50 [nM],SMILES
1,5000 to 30000,"CC(C)N(C)c1ccc(S(N)(=O)=NC(=O)Nc2c3c(cc4c2CCC4)CCC3)cc1 (single isomer, unassigned) [Example 615, (R) or (S)-N′-((1,2,3,5,6,7-hexahydro-s-indacen-4-yl)carbamoyl)-4-(isopropyl(methyl)amino) benzenesulfonimidamide]"
2,1000 to 5000,"N[S@@](=O)(=NC(=O)Nc1c2c(cc3c1CCC3)CCC2)c1ccc(CNC2CCCCCC2)cc1 [Example 704, (R)-4-((cycloheptylamino)methyl)-N′-((1,2,3,5,6,7-hexahydro-s-indacen-4-yl)-carbamoyl)-benzenesulfonimidamide]"
3,5000 to 30000,"NS(=O)(=NC(=O)Nc1c2c(cc3c1CCC3)CCC2)c1ccccc1 (centres unmarked) [Example 488, N′-((1,2,3,5,6,7-hexahydro-s-indacen-4-yl)carbamoyl)benzenesulfonimidamide]"
4,1000 to 5000,CN1CCCC(c2ccc(S(N)(=O)=NC(=O)Nc3c4c(cc5c3CC5)CCC4)c(F)c2)C1 (centres unmarked) [Compound 911]

# Same assay, conditions: Homo sapiens, THP-1, hTHP-1 assay containing 2% fetal bovine serum, Table B2, given as bound; read-out: IC50
row,IC50 [nM],SMILES
1,> 30000,"CN(Cc1ccc(S(N)(=O)=NC(=O)Nc2c3c(cc4c2CCC4)CCC3)cc1)CC(F)F (single isomer, unassigned) [Example 611, (S) or (R)-4-(((2,2-difluoroethyl) (methyl)amino)methyl)-N′-((1,2,3,5,6,7-hexahydro-s-indacen-4-yl)carbamoyl) benzenesulfonimidamide]"

# Same assay, conditions: Table B1; hTHP-1 assay containing 2% fetal bovine serum, gramicidin stimulation, IL-1β readout; read-out: hTHP-1 IC50 (average)
row,IC50 [nM],SMILES
1,40 to 200,"CC(C)(O)c1ccc(S(N)(=O)=NC(=O)Nc2c3c(cc4c2CCC4)CCC3)c(F)c1 (single isomer, unassigned) [Example 87]"
2,40 to 200,"CC(C)n1ccc(S(N)(=O)=NC(=O)Nc2c3c(cc4c2CCC4)CCC3)n1 (single isomer, unassigned) [Example 93]"

# Same assay, conditions: Table B3; hTHP-1 assay containing 2% fetal bovine serum, gramicidin stimulation, IL-1β readout; read-out: hTHP-1 IC50
row,IC50 [nM],SMILES
1,200 to 1000,"CN(Cc1ccc(S(N)(=O)=NC(=O)Nc2c3c(cc4c2CC4)CCC3)c(F)c1)C1CCC1 (single isomer, unassigned) [Example 797, (R) or (S)-4-((cyclobutyl(methyl)amino)methyl)-2-fluoro-N′-((2,4,5,6-tetrahydro-1H-cyclobuta[f]inden-3-yl)carbamoyl)benzenesulfonimidamide]"
2,200 to 1000,"CC(C)(O)c1ccnc(S(N)(=O)=NC(=O)Nc2c3c(c(C#N)c4c2CCC4)CCC3)c1 (single isomer, unassigned) [Example 827, (R) or (S)-N′-((8-cyano-1,2,3,5,6,7-hexahydro-s-indacen-4-yl)carbamoyl)-4-(2-hydroxypropan-2-yl)pyridine-2-sulfonimidamide]"
3,5000 to 30000,"C[C@@](O)(CO)c1ncc(S(N)(=O)=NC(=O)Nc2c3c(cc4c2C(=O)CC4)CCC3)s1 (single isomer, unassigned) [Example 820, (S) or (R)-2-((R)-1,2-dihydroxypropan-2-yl)-N′-((3-oxo-1,2,3,5,6,7-hexahydro-s-indacen-4-yl)carbamoyl)thiazole-5-sulfonimidamide]"
4,> 30000,"CC(C)n1nc(S(N)(=O)=NC(=O)Nc2c3c(cc4c2C(=O)CC4)CCC3)cc1C(C)(C)O (single isomer, unassigned) [Example 806, (S) or (R)-5-(2-hydroxypropan-2-yl)-1-isopropyl-N′-((3-oxo-1,2,3,5,6,7-hexahydro-5-indacen-4-yl)carbamoyl)-1H-pyrazole-3-sulfonimidamide]"

# Same assay, conditions: hTHP-1 assay containing 2% fetal bovine serum, Table B2, class symbols; read-out: IC50
row,SMILES,IC50 [nM]
1,"CC(C)(O)c1cnc(S(N)(=O)=NC(=O)Nc2c3c(cc4c2CCC4O)CCC3)s1 (single isomer, unassigned) [Example 657, (R,R) or (R,S)-N′-((1-hydroxy-1,2,3,5,6,7-hexahydro-5-indacen-4-yl)carbamoyl)-5-(2-hydroxypropan-2-yl)thiazole-2-sulfonimidamide]",1000 to 5000
2,"CC(C)(O)c1ccc(S(N)(=O)=NC(=O)Nc2c3c(c(C#N)c4c2CCC4)CCC3)cn1 (single isomer, unassigned) [Example 544, (S) or (R)-N′-((8-cyano-1,2,3,5,6,7-hexahydro-s-indacen-4-yl)carbamoyl)-6-(2-hydroxypropan-2-yl)pyridine-3-sulfonimidamide]",5000 to 30000
3,"CO[C@H]1COc2c(S(N)(=O)=NC(=O)Nc3c4c(cc5c3CCC5)CCC4)cnn2C1 (single isomer, unassigned) [Example 696, (S) or (R)-(6R)-N′-((1,2,3,5,6,7-hexahydro-s-indacen-4-yl)carbamoyl)-6-methoxy-6,7-dihydro-5H-pyrazolo[5,1-b][1,3]oxazine-3-sulfonimidamide]",200 to 1000
4,"N=S(=O)(NC(=O)Nc1c2c(cc3c1CCC3)CCC2)c1nn(C(F)F)cc1F (single isomer, unassigned) [Example 710]",40 to 200
5,"CC(C)(O)c1ncc(S(N)(=O)=NC(=O)Nc2c3c(c(Cl)c4c2CCC4)CCC3)s1 (single isomer, unassigned) [Example 596, (S) or (R)-N′-((8-chloro-1,2,3,5,6,7-hexahydro-s-indacen-4-yl)carbamoyl)-2-(2-hydroxypropan-2-yl)thiazole-5-sulfonimidamide]",1000 to 5000

# Continued, values first:
row,IC50 [nM],SMILES
1,1000 to 5000,"CNCc1ccc(S(N)(=O)=NC(=O)Nc2c3c(cc4c2CC4)CCC3)cc1 (single isomer, unassigned) [Example 537, (R) or (S)-4-((methylamino)methyl)-N′-((2,4,5,6-tetrahydro-1H-cyclobuta[f]inden-3-yl)carbamoyl) benzenesulfonimidamide]"
2,1000 to 5000,"NS(=O)(=NC(=O)Nc1c2c(cc3c1CCC3)CCC2)c1ccc(C2CCCN2)cc1 (centres unmarked) [Example 447, N′-((1,2,3,5,6,7-hexahydro-s-indacen-4-yl)carbamoyl)-4-(pyrrolidin-2-yl)benzenesulfonimidamide]"

# Same assay, conditions: hTHP-1 assay containing 2% fetal bovine serum, Table B2, given as bound; read-out: IC50
row,IC50 [nM],SMILES
1,> 30000,"N[S@](=O)(=NC(=O)Nc1c2c(cc3c1CCC3)CCC2)c1ccc(OC(F)F)cc1 (single isomer, unassigned) [Example 577, (S) or (R)-4-(difluoromethoxy)-N′-((1,2,3,5,6,7-hexahydro-s-indacen-4-yl)carbamoyl) benzenesulfonimidamide]"
